Structures can show the parent of a compound that is named as a salt.
Experiments:
[1] = test system: isolated rat thoracic aorta; assay: Vascular relaxing effect in potassium chloride (20 mM KCl) contracted isolated rat thoracic aorta; design: species or system rat (male SPRD); conditions: Rattus norvegicus; 20 mM KCl contracted strips, 37° C.; read-out: IC50 (vascular relaxation in isolated rat thoracic aorta)
Description: 1. Measurement of Vascular Relaxing Effect in Potassium Chloride Contracted Isolated rat Thoracic Aorta
Experiments were performed in thoracic aortas obtained from male SPRD rats weighing 250 to 300 g. Thoracic aortas excised from rats killed by decapitation and ensanguination were cleaned of fat and connective tissue, then were immediately placed in carbogenized TYRODE solution. The composition of the normal TYRODE solution was the following (in mM): NaCl 114.7, KCl 3.7, CaCl2 3.6, MgCl2 0.49, NaHCO3 19.9, NaH2 PO4 0.32, glucose 5.1.
Two mm wide and 20 to 25 mm long strips were cut from the aortas along a helical line at 45° angle. Aortic strips were mounted vertically between two cotton threads in 10 ml organ chambers, the lower threads were attached to the organ chambers and the upper threads were connected to isometric force transducers. The strips were incubated under 1 g resting tension at 37° C. for 120 minutes, then resting vascular tone was recorded. Then the strips were contracted with a TYRODE solution containing 20 mM KCl. The composition of the high potassium TYRODE solution was the following (in mM): NaCl 94.7, KCl 20, CaCl2 3.6, MgCl2 0.49, NaHCO3 19.9, NaH2 PO4 0.32, glucose 5.1.
When stable vascular tone developed, increasing doses of the test substance were added to the organ bath. The effects of each test substance were measured at least in 3 tissue preparations obtained from different animals. Decreases in vascular tension caused by the test substances were expressed as percentage changes and IC50 for each tissue preparation was determined by sigmoid (in few casses linear) curve fitting.
For comparison, cromakalim i.e. (±)-trans-3,4-dihydro-3-hydroxy-2,2-dimethyl-4-(2-oxo-1-pyrrolidinyl)-2H-1-benzopyrane-6-carbonitrile was used.

[2] = test system: isolated guinea-pig papillary muscle; assay: Effective refractory period (ERP) prolonging effect in isolated guinea-pig right ventricular papillary muscle, in vitro; design: species or system guinea-pig (male); conditions: for ERP change at 10^-4 M / ERP change at 10^-5 M: 30 minutes incubation, mean of at least four preparations
Text: 2. Measurement of Effective Refracter Period in Guinea-pig Right Ventricular Papillary Muscle, in Vitro.
Effective refracter period (ERP) is regarded to be the shortest time interval between two identical electrical stimuli when both can evoke a twitch in the papillary muscle. A second stimulus applied earlier than the ERP is not effective. Compounds prolonging ERP can have antiarrhythmic effect. This method is useful primarily for testing antiarrhythmic agents belonging to class III according to the Vaughan Williams classification /Bexton, R. S. and Camm. A., J. Pharmacol. Ther., 17, 315 (1982)/.
Experiments were performed in a Schuler-type organ bath system having 4 channels. Male guinea-pigs weighing 450 to 750 g were killed by a blow on the head and ensanguinated. The heart was rapidly excised and papillary muscles of appropriate size (lower than 1 mm in diameter) were dissected from the right ventricle. The preparations were vertically mounted in 20 ml organ chambers containing Krebs solution bubbled with carbogen (consisting of 95% of O2 and 5% of CO2) and maintained at 35° C. The upper end of the muscles was connected with cotton threads to force-displacement transducers coupled to a recorder for measuring isometric tension via DC-bridge amplifiers. The lower end of the papillary muscles was pinned to the organ chamber with a silver hook that was also used as a stimulating electrode. The other electrode was immersed into the organ bath and had no direct contact with the preparation. The composition of the Krebs solution was the following (in mm): NaCl 118, KCl 4.8, NaHCO3 27.2, glucose 11.1, MgSO4 1.2, KH2 PO4 1, CaCl2 2.6, pH=7.4.
The preparations were equilibrated for 120 minutes under a resting tension of 1 g. During equilibration they were electrically stimulated at a rate of 2 Hz with 1 msec rectangular pulses that were above the diastolic threshold voltage by 10%. ERP was determined using a standard extrastimulus technique. Extrastimuli (S2) were interjected between the normal stimuli (S1) in such a way that the S1 -S2 interval was initially below the refracter period of the tissue. The S1 -S2 interval was then widened by increments of 1 msec until the extrastimulus (S2) evoked twitch of the papillary muscle. The force of the twitch caused by S2 is larger than those caused by normal (S1) stimuli (postextrasystolic potentiation). The equipment measured the shortest S1 -S2 interval at which the extrastimulus evoked a twitch that was larger than the force of control twitches by 25%. This interval is equivalent with the ERP.
The experimental protocol was as follows:
Two control ERP measurements were performed 20 minutes apart, then appropriate amount of the test substance was added to produce 10^-4 M concentration in the bathing solution. After 30 minutes incubation with the test substance, two ERP measurements were performed 30 minutes apart.
When the test substance increased ERP at 10^-4 M by 40 msec or more, its effect on ERP was tested also at 10^-5 M.
The effect of the test substances was characterized by the difference between the first treated and the second control measurements. Individual data obtained from four different preparations, at least, were averaged. The reference substance used was sotalol i.e. N-[4-/1-hydroxy-2-(1-methylethylamino)ethyl/plenyl]methane sulfonamide.

[3] = test system: isolated Langendorff rat hearts; assay: Cardioprotective effect (time to contracture, TTC) in globally ischemic isolated Langendorff rat hearts; design: species or system rat (male Wistar); conditions: for TTC change vs vehicle (%) at 10 µM / TTC change vs vehicle (%) at 1 µM: Rattus norvegicus, compared to the vehicle treated group; for TTC change vs vehicle (%) at 10 µM: 10^-5 M; for TTC change vs vehicle (%) at 1 µM: 10^-6 M
Text: 3. Measurement of Cardioprotective Effect in Ischemic rat Heart (Langendorff) Preparation
If the blood supply to a part of the myocardium is interrupted (e.g. during myocardial infarction), then the intracellular calcium concentration starts to rise and gradually attains pathophysiological levels. Myocardial contraction is regulated by calcium, therefore, high intracellular calcium concentration results in contracture of the myocardium. In isolated rat hearts, contracture develops in about 10 minutes after starting global ischemia, and this period is called time to contracture (TTC). Any substance which can inhibit the rise of intracellular calcium concentration and the development of contracture caused by high calcium concentration during ischemia protects the myocardium from impairment i.e. it has cardioprotective effect. Under experimental conditions,the cardioprotective effect of drugs is shown by their ability to prolong TTC. The cardioprotective effect of the compounds of the invention was examined by measuring TTC in globally ischemic Langendorff rat hearts/Longman, S. D. and Hamilton, T. C., Medicinal Research Reviews, 12, 73-148 (1992)/.
Male Wistar rats weighing 300 to 350 g were injected with 2500 IU (0.5 ml) of heparin i.p. and 10 minutes later they were anaesthetized with sodium pentobarbital/5-ethyl-5-(1-methylbutyl)-2,4,6(1H,3H,5H)-pyrimidinetrione sodium salt/in a dose of 60 mg/kg i.p. The heart was quickly excised and connected to a Langendorff apparatus via the aorta. The hearts were perfused at a constant perfusion pressure (60 mmHg) and temperature (37° C.) with a modified Krebs-Henseleit solution gassed with 95% of O2 and 5% of CO2. The composition of the modified Krebs-Henseleit solution was the following (in mM): NaCl 118, KCl 4.7, CaCl2 2.5, NaHCO3 24.88, KH2 PO4 1.18, MgSO4 1.6, EDTA 0.5 and glucose 11. Partial O2 and CO2 pressures and also pH were measured and maintained within normal limits (pO2 ==64000-77000 Pa, pCO2 =3800-4500 Pa, pH=7.3-7.45). A hole was cut in the wall of the left atrium and a water-filled plastic balloon attached to a metal cannula was then inserted into the left ventricle via the left atrium for measuring left ventricular pressure. End diastolic pressure was set to about 645 Pa, and adjusted for during the equilibration period but not later.
After a 20 minutes equilibration period, the hearts were perfused for 10 minutes with the test substance at 10^-5 or 10^-6 concentration or with the vehicle (0.04% of dimethyl sulfoxide). Global ischemia was initiated by completely shutting off the perfusate flow and carbogenization for 25 minutes. During ischemia, the time period from the beginning of ischemia until 645 Pa increase in left ventricular end diastolic pressure was measured (TTC).
Three experiments were performed with the test substances at each concentration and parameters of 3 additional vehicle treated hearts were measured along with the test substance.
Individual TTC values were averaged and the effect of the test substances was expressed as a percentage change compared to the vehicle treated group. Compounds that prolong TTC are cardioprotective. As a reference substance, lemakalim i.e. (3S)-trans-3,4-dihydro-3-hydroxy-2,2-dimethyl-4-(2-oxo-1-pyrrolidinyl)-2H- 1-benzpyrane-6-carbonitrile was used.

[4] = biological target: T1, 5-HT2A receptor (Rattus norvegicus, UniProt P14842); assay: 5-HT2A receptor binding, rat brain frontal cortex membrane, tritiated ketanserine; conditions: read-out: Inhibition of receptor binding of the radioactive ligand (Ki), 5-HT2A
T1 construct: rat brain frontal cortex membrane preparation; from tissue; host or cells: rat brain frontal cortex membranes
Description: (§1) 4) 5-HT2A and 5-HT2C Receptor Binding Studies
(§2) 5-HT2A and 5-HT2C receptor binding was measured according to the methods described by Leysen et al. /Mol. Pharmacol., 21, 301 (1981)/and Pazos et al. /Eur. J. Pharmacol., 106, 539 (1985)/, respectively. 5-HT2A receptor binding was measured in rat brain frontal cortex membrane preparation using tritiated ketanserine /3-/2-(4-fluorobenzoyl)-1-piperidinyl/ethyl-2,4-(1H,3H)-quinazolinedione/ (60-90 Ci/mmole) as ligand. 5-HT2C receptor binding was measured in pig brain choroid plexus membrane-preparation using tritiated mesulergine /N'-/(8)-1,6-dimethylergoline-8-yl/-N,N-dimethylsulfamide (70-85 Ci/mmole) as the ligand. Non-specific binding to 5-HT2A and 5-HT2C receptors were determined in the presence of 10 micromoles of cyproheptadine /4-(5H-dibenzo/a,d/cycloheptene-5-ylidene)-1-methylpiperidine/and 1 micromole of mianserine /1,2,3,4,10,14b-hexahydro-2-methyldibenzo/c,f/pyrazino/1,2-a/azepine/, respectively. The final incubation volumes were 250 and 1000 microlitres. Samples were incubated for 15 and 30 minutes at 37° C. Incubation was stopped by adding 9 ml of ice-cold 50 mr- tris(hydroxymethyl)aminomethane hydrochloride (pH=7.7) to the reaction mixture. The samples were rapidly filtered through whatman GF/B glass fiber filters using reduced pressure. […] Radioactivity of the filters was determined by a scintillation spectrometer.

[5] = biological target: T2, 5-HT2C receptor (Sus scrofa, UniProt K7GSR7); assay: 5-HT2C receptor binding, pig brain choroid plexus membrane, tritiated mesulergine; conditions: read-out: Inhibition of receptor binding of the radioactive ligand (Ki), 5-HT2C
T2 construct: pig brain choroid plexus membrane-preparation; from tissue; host or cells: pig brain choroid plexus membranes
T2 sequence (K7GSR7 1-457): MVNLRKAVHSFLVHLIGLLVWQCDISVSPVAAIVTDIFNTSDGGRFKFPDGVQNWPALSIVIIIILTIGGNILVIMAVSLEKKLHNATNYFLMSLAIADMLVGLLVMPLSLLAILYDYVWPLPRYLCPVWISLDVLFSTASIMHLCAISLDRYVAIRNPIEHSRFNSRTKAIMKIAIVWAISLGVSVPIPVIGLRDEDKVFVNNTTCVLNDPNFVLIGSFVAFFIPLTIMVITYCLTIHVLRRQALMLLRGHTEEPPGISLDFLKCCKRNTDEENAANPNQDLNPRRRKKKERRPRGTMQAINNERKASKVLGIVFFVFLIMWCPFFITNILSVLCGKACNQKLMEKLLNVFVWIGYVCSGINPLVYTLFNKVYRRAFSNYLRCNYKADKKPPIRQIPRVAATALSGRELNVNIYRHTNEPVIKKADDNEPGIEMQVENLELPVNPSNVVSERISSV
Description: as §1, §2

T1 sequence (P14842 whole entry): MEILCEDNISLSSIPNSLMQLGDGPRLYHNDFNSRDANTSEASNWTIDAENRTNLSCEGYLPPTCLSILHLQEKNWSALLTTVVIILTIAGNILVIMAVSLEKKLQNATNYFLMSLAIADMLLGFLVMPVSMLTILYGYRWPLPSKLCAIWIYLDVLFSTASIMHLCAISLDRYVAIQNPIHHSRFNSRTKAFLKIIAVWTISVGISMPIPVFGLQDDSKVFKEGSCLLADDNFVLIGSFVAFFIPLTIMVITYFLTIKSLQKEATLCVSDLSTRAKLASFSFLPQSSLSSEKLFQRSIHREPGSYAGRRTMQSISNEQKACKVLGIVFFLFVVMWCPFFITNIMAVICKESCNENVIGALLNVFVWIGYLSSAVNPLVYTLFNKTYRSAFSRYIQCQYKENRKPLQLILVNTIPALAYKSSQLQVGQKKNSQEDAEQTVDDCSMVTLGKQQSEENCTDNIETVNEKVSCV

Structure (SMILES)	IC50 [1]	ERP change at 10^-4 M [2]	ERP change at 10^-5 M [2]	TTC change vs vehicle (%) at 10 µM [3]	TTC change vs vehicle (%) at 1 µM [3]	ERP prolongation (in words) [2]	TTC prolongation (in words) [3]	Ki [4]	Ki [5]
CN1CCN(c2nc(N)n(-c3nnc(-c4c(Cl)cccc4Cl)s3)n2)CC1 [Example 10, 2-/5-Amino-3-(4-methylpiperazino)-1H-1,2,4-triazole-1-yl/ -5-(2,6-dichlorophenyl)-1,3,4-thiadiazole hydrochloride monohydrate]	> 10000 nM	120 msec	32 msec	74%	47%	–	–	–	–
CSc1nc(N)n(-c2nnc(-c3cccc(OCCCN(C)C)c3)s2)n1 [Example 26, 2-(5-Amino-3-methylthio-1H-1,2,4-triazole-1-yl)-5-/ 3-(3-dimethylaminopropoxy)phenyl/-1,3,4-thiadiazole hydrochloride]	> 10000 nM	148 msec	21 msec	41%	33%	prolonged not only TTC but ERP as well	prolonged not only TTC but ERP as well	–	–
CN(C)CCCOc1ccccc1-c1nnc(-n2nc(N3CCCC3)nc2N)s1 [Example 44, 2-(5-Amino-3-pyrrolidino-1H-1,2,4-triazole-1-yl)-5-/ 2-(3-dimethylaminopropoxy)phenyl/-1,3,4-thiadiazole]	–	–	–	–	–	–	–	> 100 nM	50 nM
COc1ccc(CCN(C)CCCOc2ccccc2-c2nnc(-n3nc(SC)nc3N)s2)cc1OC [Example 98, 2-(5-Amino-3-methylthio-1H-1,2,4-triazole-1-yl)-5-{2-[3-methyl-3-/ 2-(3,4-dimethoxyphenylethyl)amino/propoxy]phenyl}-1,3,4-thiadiazole]	–	–	–	–	–	–	–	> 1000 nM	24 nM

Reference: patent publication US6191152A, “2-(1,2,4-triazole-1-yl)-1,3,4-thiadiazole derivatives having an effect on the C.N.S. and the heart” (EGIS Gyogyszergyar Rt., priority 1997, dated 2001)
